Laboratory results published in ChEMBL document CHEMBL4804285, “Small molecule inhibitors of cdk12/cdk13” (2019).
pIC50, pKd: −log10 of the molar value. “And” between values parts separate entries of the source, which are not always exact repeats. Equal values may be shown once.

Tests used:
[1] = target: T1, Cyclin-dependent kinase 13 (Homo sapiens, UniProt Q14004); experiment: Binding affinity towards CDK13 (unknown origin) by Discover X assay
Target sequence in this assay (Q14004 whole entry): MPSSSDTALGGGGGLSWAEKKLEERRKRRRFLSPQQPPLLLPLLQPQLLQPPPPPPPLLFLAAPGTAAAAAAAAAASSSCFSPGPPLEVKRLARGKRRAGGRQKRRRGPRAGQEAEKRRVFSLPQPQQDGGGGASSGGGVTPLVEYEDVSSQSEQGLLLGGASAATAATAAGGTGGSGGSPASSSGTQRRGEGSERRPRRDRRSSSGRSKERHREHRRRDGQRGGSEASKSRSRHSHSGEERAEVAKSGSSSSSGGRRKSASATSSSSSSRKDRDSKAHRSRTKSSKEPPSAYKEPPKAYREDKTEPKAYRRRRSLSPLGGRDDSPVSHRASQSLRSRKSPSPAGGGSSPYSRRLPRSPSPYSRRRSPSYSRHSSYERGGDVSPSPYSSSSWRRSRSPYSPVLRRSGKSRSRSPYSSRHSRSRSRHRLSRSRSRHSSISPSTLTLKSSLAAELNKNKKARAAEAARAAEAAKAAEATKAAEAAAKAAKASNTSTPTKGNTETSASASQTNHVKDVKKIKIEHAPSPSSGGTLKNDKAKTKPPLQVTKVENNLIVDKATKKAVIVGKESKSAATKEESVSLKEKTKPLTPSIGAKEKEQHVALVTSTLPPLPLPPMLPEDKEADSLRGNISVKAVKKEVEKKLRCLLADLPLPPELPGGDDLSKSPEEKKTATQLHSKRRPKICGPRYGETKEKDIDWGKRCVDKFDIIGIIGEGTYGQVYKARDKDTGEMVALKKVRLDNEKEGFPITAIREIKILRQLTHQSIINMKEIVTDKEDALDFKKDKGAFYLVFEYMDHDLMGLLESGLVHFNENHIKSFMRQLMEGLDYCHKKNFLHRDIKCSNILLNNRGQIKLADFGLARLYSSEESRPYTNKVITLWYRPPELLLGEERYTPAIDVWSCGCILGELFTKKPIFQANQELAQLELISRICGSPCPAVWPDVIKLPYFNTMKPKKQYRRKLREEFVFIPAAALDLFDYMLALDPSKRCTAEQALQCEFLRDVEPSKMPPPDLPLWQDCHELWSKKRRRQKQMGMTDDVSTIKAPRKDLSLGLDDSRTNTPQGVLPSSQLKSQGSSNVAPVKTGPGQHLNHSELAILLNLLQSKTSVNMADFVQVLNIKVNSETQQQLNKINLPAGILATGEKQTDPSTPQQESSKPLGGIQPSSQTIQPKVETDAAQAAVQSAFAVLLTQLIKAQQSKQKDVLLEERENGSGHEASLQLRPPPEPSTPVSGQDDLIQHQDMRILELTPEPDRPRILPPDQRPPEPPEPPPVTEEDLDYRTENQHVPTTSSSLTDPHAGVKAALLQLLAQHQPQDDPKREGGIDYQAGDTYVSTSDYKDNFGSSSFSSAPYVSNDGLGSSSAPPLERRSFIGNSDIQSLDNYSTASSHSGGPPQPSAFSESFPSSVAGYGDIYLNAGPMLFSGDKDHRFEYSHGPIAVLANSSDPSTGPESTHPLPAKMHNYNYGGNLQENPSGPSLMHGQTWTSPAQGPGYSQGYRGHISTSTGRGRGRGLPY

[2] = target: Cyclin-dependent kinase 12 (Homo sapiens, UniProt Q9NYV4); experiment: Binding affinity towards CDK12 (unknown origin) by Discover X assay
[3] = target: Casein kinase I isoform epsilon (Homo sapiens, UniProt P49674); experiment: Inhibition of casein kinase 1epsilon (unknown origin)
[4] = target: Casein kinase I isoform delta (Homo sapiens, UniProt P48730); experiment: Inhibition of casein kinase 1delta (unknown origin)
Cytochrome P450 1A2 = target: T2, Cytochrome P450 1A2 (Homo sapiens, UniProt P05177); experiment: Inhibition of CYP1A2 (unknown origin); type: ADME
T2 sequence (P05177 whole entry): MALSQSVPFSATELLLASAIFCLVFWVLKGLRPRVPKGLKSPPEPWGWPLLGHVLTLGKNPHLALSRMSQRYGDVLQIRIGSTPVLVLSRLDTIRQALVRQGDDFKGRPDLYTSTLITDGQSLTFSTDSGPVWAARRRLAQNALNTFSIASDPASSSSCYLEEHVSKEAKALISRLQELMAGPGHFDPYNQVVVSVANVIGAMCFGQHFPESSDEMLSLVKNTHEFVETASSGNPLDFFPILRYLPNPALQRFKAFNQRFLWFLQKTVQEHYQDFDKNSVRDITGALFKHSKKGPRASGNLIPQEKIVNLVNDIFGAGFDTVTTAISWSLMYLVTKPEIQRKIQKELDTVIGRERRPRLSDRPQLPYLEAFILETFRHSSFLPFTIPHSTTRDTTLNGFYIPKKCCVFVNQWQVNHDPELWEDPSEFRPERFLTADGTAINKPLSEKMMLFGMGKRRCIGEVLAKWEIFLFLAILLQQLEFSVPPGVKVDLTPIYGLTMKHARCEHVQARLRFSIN

Cytochrome P450 2D6 = Cytochrome P450 2D6 (Homo sapiens, UniProt P10635); experiment: Inhibition of CYP2D6 (unknown origin); type: ADME
Cytochrome P450 3A4 = Cytochrome P450 3A4 (Homo sapiens, UniProt P08684); experiment: Inhibition of CYP3A4 (unknown origin); type: ADME
[5] = target: T1, Cyclin-dependent kinase 13; experiment: Inhibition of CDK13 (unknown origin) at 10 uM relative to control
Target sequence in this assay (Q14004 whole entry, looked up): as the sequence (Q14004 whole entry) above

[6] = target: Cyclin-dependent kinase 7 (Homo sapiens) (UniProt P50613); experiment: Inhibition of CDK7 (unknown origin) at 10 uM relative to control
[7] = target: Cyclin-dependent kinase 4 (Homo sapiens) (UniProt P11802); experiment: Inhibition of CDK4 (unknown origin) at 10 uM relative to control
[8] = target: Cyclin-dependent kinase 2 (Homo sapiens) (UniProt P24941); experiment: Inhibition of CDK2 (unknown origin) at 10 uM relative to control
[9] = target: Cyclin-dependent kinase 4/cyclin D1 (Homo sapiens) (UniProt P11802+P24385); experiment: Inhibition of CDK4/Cyclin D1 (unknown origin) at 10 uM relative to control; type: protein-complex assay
[10] = target: Cyclin-dependent kinase 5 (Homo sapiens) (UniProt Q00535); experiment: Inhibition of CDK5 (unknown origin) at 10 uM relative to control
[11] = target: Cyclin-dependent kinase-like 1 (Homo sapiens) (UniProt Q00532); experiment: Inhibition of CDKL1 (unknown origin) at 10 uM relative to control
[12] = target: CDK4/Cyclin D3 (Homo sapiens) (UniProt P11802+P30281); experiment: Inhibition of CDK4/Cyclin D3 (unknown origin) at 10 uM relative to control; type: protein-complex assay
[13] = target: Cyclin-dependent kinase 3 (Homo sapiens) (UniProt Q00526); experiment: Inhibition of CDK3 (unknown origin) at 10 uM relative to control
[14] = target: T3, Cyclin-dependent kinase-like 5 (Homo sapiens) (UniProt O76039); experiment: Inhibition of CDKL5 (unknown origin) at 10 uM relative to control
T3 sequence (whole entry): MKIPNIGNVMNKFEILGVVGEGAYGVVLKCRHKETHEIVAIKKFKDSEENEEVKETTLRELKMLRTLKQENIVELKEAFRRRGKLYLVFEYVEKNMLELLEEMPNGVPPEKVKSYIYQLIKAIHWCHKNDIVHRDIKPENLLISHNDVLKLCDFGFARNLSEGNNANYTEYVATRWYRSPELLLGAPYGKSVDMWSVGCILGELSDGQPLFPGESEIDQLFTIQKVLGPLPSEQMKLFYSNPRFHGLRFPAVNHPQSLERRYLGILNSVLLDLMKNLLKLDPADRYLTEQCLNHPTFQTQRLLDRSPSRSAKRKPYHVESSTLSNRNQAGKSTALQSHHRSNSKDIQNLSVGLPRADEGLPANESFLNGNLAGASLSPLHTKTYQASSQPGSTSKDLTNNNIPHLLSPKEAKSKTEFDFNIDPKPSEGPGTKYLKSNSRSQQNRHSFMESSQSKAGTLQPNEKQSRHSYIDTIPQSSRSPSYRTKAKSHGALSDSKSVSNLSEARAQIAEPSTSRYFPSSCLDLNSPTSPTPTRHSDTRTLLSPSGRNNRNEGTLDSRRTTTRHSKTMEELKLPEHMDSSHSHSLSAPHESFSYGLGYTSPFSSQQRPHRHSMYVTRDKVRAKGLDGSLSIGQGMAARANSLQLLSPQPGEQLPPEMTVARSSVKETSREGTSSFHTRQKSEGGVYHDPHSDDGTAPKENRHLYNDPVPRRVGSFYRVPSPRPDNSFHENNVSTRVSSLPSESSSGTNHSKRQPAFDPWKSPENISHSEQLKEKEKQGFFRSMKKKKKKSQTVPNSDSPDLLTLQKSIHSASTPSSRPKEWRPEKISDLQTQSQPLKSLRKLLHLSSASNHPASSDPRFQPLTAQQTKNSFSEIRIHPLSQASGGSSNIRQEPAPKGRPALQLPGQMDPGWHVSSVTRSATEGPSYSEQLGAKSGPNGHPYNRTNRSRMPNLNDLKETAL

[15] = target: Cyclin-dependent kinase 9 (Homo sapiens) (UniProt P50750); experiment: Inhibition of CDK9 (unknown origin) at 10 uM relative to control
[16] = target: Cyclin-dependent kinase 8 (Homo sapiens) (UniProt P49336); experiment: Inhibition of CDK8 (unknown origin) at 10 uM relative to control
[17] = target: Cyclin-dependent kinase-like 3 (Homo sapiens) (UniProt Q8IVW4); experiment: Inhibition of CDKL3 (unknown origin) at 10 uM relative to control
[18] = target: Cyclin-dependent kinase 19 (Homo sapiens) (UniProt Q9BWU1); experiment: Inhibition of CDK11 (unknown origin) at 10 uM relative to control
[19] = target: T4, Cyclin-dependent kinase-like 2 (Homo sapiens) (UniProt Q92772); experiment: Inhibition of CDKL2 (unknown origin) at 10 uM relative to control
T4 sequence (whole entry): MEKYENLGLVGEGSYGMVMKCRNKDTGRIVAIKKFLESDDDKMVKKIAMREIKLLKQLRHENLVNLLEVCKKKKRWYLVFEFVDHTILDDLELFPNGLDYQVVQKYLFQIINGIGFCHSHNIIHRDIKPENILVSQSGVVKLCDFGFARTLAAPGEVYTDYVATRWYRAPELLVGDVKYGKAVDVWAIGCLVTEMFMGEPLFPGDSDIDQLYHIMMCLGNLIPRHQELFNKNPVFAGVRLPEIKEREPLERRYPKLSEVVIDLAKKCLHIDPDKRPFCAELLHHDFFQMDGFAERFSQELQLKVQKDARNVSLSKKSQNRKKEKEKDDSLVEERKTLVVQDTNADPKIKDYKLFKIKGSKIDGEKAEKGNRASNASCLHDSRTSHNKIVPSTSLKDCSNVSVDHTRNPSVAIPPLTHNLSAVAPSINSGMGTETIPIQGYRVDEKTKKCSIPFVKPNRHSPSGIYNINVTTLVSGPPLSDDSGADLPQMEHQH

Cytochrome P450 2C9 = Cytochrome P450 2C9 (Homo sapiens, UniProt P11712); experiment: Inhibition of CYP2C9 (unknown origin); type: ADME
[20] = Cmax in mouse at 20 mg/kg, ip; type: ADME, organism-based; set-up: route intraperitoneal, dose 20 mg/kg; conditions: in vivo
[21] = AUC (last) in mouse at 20 mg/kg, ip; type: ADME, organism-based; set-up: time 0 - last, route intraperitoneal, dose 20 mg/kg; conditions: in vivo

Cyclin-dependent kinase 3 (Homo sapiens), sequence (Q00526 whole entry, looked up): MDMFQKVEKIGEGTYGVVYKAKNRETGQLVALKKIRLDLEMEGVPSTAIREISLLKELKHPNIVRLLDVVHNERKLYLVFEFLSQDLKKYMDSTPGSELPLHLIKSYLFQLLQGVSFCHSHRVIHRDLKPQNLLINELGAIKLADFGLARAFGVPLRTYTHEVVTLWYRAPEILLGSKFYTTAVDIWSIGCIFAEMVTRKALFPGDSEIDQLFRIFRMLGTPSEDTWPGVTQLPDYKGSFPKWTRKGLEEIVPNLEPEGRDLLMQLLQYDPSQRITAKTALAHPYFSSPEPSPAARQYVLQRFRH
Cytochrome P450 2D6, sequence (P10635 whole entry): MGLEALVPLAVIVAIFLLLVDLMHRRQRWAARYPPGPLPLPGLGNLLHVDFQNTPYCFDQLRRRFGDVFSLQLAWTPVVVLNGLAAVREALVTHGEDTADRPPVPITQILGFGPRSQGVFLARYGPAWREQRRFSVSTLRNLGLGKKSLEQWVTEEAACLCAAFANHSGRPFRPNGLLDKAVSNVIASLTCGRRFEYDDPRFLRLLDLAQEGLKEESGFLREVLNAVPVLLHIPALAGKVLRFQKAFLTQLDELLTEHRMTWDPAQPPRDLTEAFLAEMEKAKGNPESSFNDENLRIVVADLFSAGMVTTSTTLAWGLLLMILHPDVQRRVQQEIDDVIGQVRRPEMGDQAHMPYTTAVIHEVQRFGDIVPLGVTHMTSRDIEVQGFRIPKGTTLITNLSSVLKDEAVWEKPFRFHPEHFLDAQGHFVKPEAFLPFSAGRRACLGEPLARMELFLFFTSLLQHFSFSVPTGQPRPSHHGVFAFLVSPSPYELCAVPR
Casein kinase I isoform epsilon, sequence (P49674 whole entry, canonical isoform): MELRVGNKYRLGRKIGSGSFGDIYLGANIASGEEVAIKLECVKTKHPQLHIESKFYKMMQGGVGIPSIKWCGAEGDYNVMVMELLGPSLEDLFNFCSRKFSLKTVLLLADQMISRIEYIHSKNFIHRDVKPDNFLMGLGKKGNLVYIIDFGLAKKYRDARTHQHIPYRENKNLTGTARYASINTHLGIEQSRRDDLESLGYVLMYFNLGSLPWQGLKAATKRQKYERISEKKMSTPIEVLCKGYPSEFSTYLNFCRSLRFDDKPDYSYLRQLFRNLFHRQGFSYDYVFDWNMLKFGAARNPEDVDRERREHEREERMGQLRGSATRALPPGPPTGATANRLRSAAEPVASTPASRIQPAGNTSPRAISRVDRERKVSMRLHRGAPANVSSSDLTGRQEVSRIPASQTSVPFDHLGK
Cyclin-dependent kinase 7 (Homo sapiens), sequence (P50613 whole entry): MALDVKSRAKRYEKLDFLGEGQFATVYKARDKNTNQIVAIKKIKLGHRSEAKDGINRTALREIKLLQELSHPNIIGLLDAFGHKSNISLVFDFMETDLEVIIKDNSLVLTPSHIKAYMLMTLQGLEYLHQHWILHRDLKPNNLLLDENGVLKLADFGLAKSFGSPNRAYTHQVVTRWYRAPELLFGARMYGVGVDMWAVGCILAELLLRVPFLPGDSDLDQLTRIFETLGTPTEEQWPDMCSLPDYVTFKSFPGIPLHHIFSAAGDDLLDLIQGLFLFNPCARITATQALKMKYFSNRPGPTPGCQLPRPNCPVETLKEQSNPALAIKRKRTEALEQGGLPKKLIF
Cytochrome P450 2C9, sequence (P11712 whole entry): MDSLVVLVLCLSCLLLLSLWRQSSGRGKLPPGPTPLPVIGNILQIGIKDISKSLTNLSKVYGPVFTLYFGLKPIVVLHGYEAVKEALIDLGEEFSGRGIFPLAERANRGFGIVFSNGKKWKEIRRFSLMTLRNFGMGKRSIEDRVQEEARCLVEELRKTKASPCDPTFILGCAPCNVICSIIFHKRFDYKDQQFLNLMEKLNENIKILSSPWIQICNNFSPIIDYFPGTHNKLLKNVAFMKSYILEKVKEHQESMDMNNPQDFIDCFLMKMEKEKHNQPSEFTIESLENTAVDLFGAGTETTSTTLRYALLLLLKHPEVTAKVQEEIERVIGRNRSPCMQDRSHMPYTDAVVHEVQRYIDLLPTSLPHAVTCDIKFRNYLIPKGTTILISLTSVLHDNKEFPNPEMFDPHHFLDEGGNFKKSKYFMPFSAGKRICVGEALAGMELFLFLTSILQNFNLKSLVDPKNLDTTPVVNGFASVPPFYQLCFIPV
Casein kinase I isoform delta, sequence (P48730 whole entry, canonical isoform): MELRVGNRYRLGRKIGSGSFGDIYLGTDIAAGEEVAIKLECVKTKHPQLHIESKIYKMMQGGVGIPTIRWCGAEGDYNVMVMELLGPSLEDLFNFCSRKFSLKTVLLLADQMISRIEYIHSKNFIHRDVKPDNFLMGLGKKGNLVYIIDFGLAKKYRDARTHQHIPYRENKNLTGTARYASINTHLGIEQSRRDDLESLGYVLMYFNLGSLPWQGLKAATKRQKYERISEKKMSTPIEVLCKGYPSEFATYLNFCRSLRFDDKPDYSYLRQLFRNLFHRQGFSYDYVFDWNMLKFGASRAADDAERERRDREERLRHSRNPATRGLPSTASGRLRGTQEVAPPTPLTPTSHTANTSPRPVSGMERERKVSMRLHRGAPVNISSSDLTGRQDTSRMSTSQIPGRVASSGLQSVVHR
Cytochrome P450 3A4, sequence (P08684 whole entry): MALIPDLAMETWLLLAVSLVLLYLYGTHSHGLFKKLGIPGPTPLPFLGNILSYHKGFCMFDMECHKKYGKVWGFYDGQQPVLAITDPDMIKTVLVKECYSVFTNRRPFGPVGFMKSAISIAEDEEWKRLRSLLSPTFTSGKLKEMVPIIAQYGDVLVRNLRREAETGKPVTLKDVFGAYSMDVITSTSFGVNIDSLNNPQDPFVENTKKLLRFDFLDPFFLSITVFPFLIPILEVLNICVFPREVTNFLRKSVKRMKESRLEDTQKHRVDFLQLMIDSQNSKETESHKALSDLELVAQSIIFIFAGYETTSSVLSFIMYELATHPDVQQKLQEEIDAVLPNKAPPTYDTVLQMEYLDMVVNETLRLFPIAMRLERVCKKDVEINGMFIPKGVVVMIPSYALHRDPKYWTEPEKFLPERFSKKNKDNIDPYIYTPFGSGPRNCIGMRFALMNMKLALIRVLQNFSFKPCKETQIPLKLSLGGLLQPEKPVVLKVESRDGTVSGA
Cyclin-dependent kinase 9 (Homo sapiens), sequence (P50750 whole entry): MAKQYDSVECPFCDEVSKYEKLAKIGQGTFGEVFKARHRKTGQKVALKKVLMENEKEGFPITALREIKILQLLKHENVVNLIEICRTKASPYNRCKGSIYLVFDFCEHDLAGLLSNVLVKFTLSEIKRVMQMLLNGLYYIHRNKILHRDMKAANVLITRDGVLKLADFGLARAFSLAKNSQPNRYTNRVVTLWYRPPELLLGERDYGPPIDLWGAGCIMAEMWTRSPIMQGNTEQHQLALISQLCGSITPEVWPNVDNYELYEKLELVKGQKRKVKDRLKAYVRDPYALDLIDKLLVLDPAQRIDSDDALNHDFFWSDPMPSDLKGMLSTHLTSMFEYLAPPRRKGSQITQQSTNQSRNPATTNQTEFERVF

Compound	pKd [1]	pKd [2]	pIC50 [3]	pIC50 [4]	inhibition (INH) (Cytochrome P450 1A2)	inhibition (INH) (Cytochrome P450 2D6)	inhibition (INH) (Cytochrome P450 3A4)	inhibition [5]	inhibition [6]	inhibition [8]	inhibition [9]	inhibition [11]	inhibition [12]	inhibition [13]	inhibition [14]	inhibition [15]	inhibition [16]	inhibition [17]	inhibition [18]	inhibition (INH) (Cytochrome P450 2C9)	also measured
COc1cc2nc(CNc3nc(N4CCOCC4)nc4c3ncn4-c3cnn(C)c3)[nH]c2cc1Cl	8.70	7.42	5.58	–	–	–	–	12%	98%	–	–	–	–	–	–	–	–	–	–	–	inhibition [7]: 99%
Fc1cccc(-n2cnc3c(NCc4nc5c(F)c(F)ccc5[nH]4)nc(N4CCOCC4)nc32)c1	–	–	–	–	–	–	–	100%	72%	1%	97%	8%	95%	6%	0%	69%	22%	5%	0%	–	inhibition [10]: 18%; inhibition [19]: 0%
Cn1cc(-n2cnc3c(NCc4nc5cc(Cl)c(Cl)cc5[nH]4)nc(N4CCOC[C@H]4CO)nc32)cn1	–	–	5.27	5.22	39%	29%	54%	–	–	–	–	–	–	–	–	–	–	–	–	54%	Cmax [20]: 1430 ng/mL and 2.7 µM; AUC(0-t) [21]: 10 µM·h
Cn1cc(-n2cnc3c(NCc4nc5cc(Cl)c(Cl)cc5[nH]4)nc(N4CCOC[C@@H]4CO)nc32)cn1	–	–	6.84	6.48	42%	42%	77%	–	–	–	–	–	–	–	–	–	–	–	–	69%	–
Cc1cc(-n2cnc3c(NCc4nc5c(F)c(F)ccc5[nH]4)nc(N4CCOCC4)nc32)no1	–	–	–	–	5%	2%	55%	100%	69%	3%	99%	16%	99%	8%	1%	64%	40%	0%	23%	23%	inhibition [19]: 2%
FC(F)n1cc(-n2cnc3c(NCc4nc5cc(Cl)c(Cl)cc5[nH]4)nc(N4CCOCC4)nc32)cn1	8.05	6.51	6.15	5.90	–	–	–	–	–	–	–	–	–	–	–	–	–	–	–	–	–

More lines, main results first:

pKd [1]	pKd [2]	pIC50 [3]	pIC50 [4]	inhibition (INH) (Cytochrome P450 1A2)	inhibition (INH) (Cytochrome P450 2D6)	inhibition (INH) (Cytochrome P450 3A4)	inhibition [5]	inhibition [6]	inhibition [8]	inhibition [9]	inhibition [11]	inhibition [12]	inhibition [13]	inhibition [14]	inhibition [15]	inhibition [16]	inhibition [17]	inhibition [18]	inhibition (INH) (Cytochrome P450 2C9)	Compound	also measured
8.22	7.74	5.89	6.06	97%	57%	89%	–	–	–	–	–	–	–	–	–	–	–	–	–	Fc1ccc2[nH]c(CNc3nc(N4CCOCC4)nc4c3ncn4-c3cscn3)nc2c1F	–
–	–	–	–	10%	-3%	56%	100%	69%	6%	99%	16%	99%	3%	0%	43%	0%	0%	0%	23%	Cn1cc(-n2cnc3c(NCc4nc5c(F)c(F)ccc5[nH]4)nc(N4CCOCC4)nc32)cn1	inhibition [19]: 0%
–	–	–	–	5%	2%	55%	–	–	–	–	–	–	–	–	–	–	–	–	23%	Cn1cc(-n2cnc3c(NCc4nc5cc(F)c(F)cc5[nH]4)nc(N4CCOCC4)nc32)cn1	–
